Experimental data from PMC10177692, “Novel topoisomerase II/EGFR dual inhibitors: design, synthesis and docking studies of naphtho[2′,3′:4,5]thiazolo[3,2-a]pyrimidine hybrids as potential anticancer agents with apoptosis inducing activity” (Journal of Enzyme Inhibition and Medicinal Chemistry, 2023).

Experiments:
topoisomerase IIα = biological target: T1, topoisomerase IIα (Homo sapiens, UniProt P11388); test: Topoisomerase IIα inhibitory activity (ELISA kit); format: cell-based; conditions: MCF-7 cell line; for % inhibition of topoisomerase IIα activity: compounds at their IC50, compared to control; for concentration of topoisomerase IIα: compounds at their IC50, control 3.663 ± 0.09 ng/ml
T1 construct: it decreases the concentration of topoisomerase iIα in MCF-7 cell line to 1.043 ± 0.10 ng/ml; endogenous in cells; host or cells: MCF-7
Method: Biotin-conjugated antibody was added to each well followed by incubation at 37 °C for 1 h, then the plates were aspirated. Avidin conjugated Horseradish Peroxidase (HRP avidin) solution was added to each well, incubated again at 37 °C for 1 h. TMB substrate was added to the wells and the plate was incubated at 37 °C for 30 min at dark place. The absorbance was read using spectrophotometer at a wavelength of 450 nm.

topoisomerase II = biological target: T2, topoisomerase II (Homo sapiens, UniProt P11388); test: DNA topo II inhibition assay (kDNA, agarose gel); format: biochemical; conditions: 10 µM, with topo II
T2 construct: purchased Topogen, USA
Method: Using the procedure outlined in topoisomerase II Drug Screening Kit (Topogen, USA), the effect of 6a, 6c and 6i on topoisomerase II inhibition and the effectiveness of catenated/decatenated kDNA formation were examined. The reaction mixture includes 10 mM MgCl2, 50 mM Tris-HCl, 0.5 mM dithiothreitol, […]/ml bovine serum albumin, 200–300 ng of kDNA and topoisomerase II. […] After the reaction samples were incubated for 30 min at 37 °C, the reaction was stopped by adding […] of a stop buffer containing 10% (w/v) SDS and […] of 0.5 mg/ml proteinase followed by incubating the mixture for 10 min at 37 °C. The reaction mixture was separated by 1% agarose gel and examined after being stained with ethidium bromide.

T1 sequence (P11388 whole entry): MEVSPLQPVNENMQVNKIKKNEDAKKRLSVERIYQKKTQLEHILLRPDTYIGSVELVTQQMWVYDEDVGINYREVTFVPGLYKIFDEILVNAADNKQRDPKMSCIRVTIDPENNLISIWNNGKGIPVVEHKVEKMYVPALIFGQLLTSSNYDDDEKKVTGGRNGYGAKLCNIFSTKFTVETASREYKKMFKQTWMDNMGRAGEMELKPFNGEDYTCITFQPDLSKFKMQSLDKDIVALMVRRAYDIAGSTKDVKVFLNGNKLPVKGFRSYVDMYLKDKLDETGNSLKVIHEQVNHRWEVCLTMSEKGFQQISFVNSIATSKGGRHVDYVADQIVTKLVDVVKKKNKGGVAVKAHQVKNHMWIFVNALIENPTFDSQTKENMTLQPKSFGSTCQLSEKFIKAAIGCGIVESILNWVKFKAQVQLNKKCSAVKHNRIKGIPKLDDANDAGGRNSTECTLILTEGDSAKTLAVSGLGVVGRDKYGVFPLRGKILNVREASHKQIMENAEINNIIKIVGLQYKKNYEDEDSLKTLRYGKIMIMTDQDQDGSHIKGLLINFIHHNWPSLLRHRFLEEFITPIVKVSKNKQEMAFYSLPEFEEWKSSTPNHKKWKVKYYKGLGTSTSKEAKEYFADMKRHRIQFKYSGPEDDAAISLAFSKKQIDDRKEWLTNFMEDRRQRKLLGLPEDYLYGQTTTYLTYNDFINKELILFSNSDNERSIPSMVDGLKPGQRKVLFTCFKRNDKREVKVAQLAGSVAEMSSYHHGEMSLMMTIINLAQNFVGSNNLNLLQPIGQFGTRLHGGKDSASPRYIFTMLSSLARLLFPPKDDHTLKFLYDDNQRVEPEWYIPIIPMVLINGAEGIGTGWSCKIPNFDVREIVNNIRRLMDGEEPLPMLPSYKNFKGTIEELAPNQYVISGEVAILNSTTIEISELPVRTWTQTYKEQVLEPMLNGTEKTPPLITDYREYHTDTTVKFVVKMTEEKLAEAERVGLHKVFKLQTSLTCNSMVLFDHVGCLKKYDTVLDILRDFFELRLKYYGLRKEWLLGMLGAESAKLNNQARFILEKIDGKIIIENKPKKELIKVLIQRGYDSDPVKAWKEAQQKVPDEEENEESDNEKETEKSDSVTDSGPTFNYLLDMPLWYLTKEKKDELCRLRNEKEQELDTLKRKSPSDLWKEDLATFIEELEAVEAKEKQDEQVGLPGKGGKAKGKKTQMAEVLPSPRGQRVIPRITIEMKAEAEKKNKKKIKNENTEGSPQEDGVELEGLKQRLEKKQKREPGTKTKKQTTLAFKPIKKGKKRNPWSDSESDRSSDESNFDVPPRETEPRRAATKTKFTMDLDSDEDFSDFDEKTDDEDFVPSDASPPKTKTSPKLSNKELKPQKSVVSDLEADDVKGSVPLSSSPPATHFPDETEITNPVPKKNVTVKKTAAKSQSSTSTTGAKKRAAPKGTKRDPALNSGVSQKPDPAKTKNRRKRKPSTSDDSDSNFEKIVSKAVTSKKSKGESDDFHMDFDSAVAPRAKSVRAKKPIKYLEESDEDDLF
T2 sequence (P11388 whole entry): as above

Row | SMILES | % inhibition of topoisomerase IIα activity (topoisomerase IIα) | concentration of topoisomerase IIα (topoisomerase IIα) | linear DNA formation from catenated kDNA (topoisomerase II)
1 | COc1ccc(-c2nc3sc4c(n3c(=O)c2C#N)C(=O)c2ccccc2C4=O)cc1 [Compound 6a, 2–(4-Methoxyphenyl)-4,6,11-trioxo-6,11-dihydro-4H-naphtho[2′,3′:4,5]-thiazolo[3,2-a]pyrimidine-3-carbonitrile] | 35.81% | 2.351 ± 0.21 ng/mL | the production of linear DNA was not noticed
2 | N#Cc1c(-c2ccc([N+](=O)[O-])cc2)nc2sc3c(n2c1=O)C(=O)c1ccccc1C3=O [Compound 6i, 2–(4-Nitrophenyl)-4,6,11-trioxo-6,11-dihydro-4H-naphtho[’',’':4,5]thiazolo-[3,2-a]pyrimidine-3-carbonitrile] | 71.50% | 1.043 ± 0.10 ng/mL | the production of linear DNA was not noticed
